{"source": "patent US20130287688A1", "about": "“NOVEL COMPOSITIONS AND USES OF ANTI-HYPERTENSION AGENTS FOR CANCER THERAPY” (XTUIT PHARMACEUTICALS, INC., priority 2010, published 2013)", "key": {"[1]": {"system": "L3.6PL orthotopic pancreatic tumors", "experiment": "DOXIL treatment and tumor growth delay", "assay_type": "in vivo, SCID mice", "excerpt": "One week after the DOXIL injection, the tumors were resected and measured."}, "Pan-02 pancreatic tumors": {"system": "Pan-02 pancreatic tumors", "experiment": "Solid stress (tumor opening technique)", "design": "species or system C57BL/6 mouse", "conditions": "mouse, in vivo", "excerpt": "FIG. 25 is a bar graph showing that angiotensin inhibitors decrease stress in multiple tumor models. Solid stress levels in tumors after angiotensin inhibition using losartan are shown. […] Animal numbers n=10-11 (4T1 stress), n=4-8 (Pan-02 stress).\nThe mechanism responsible for the increase in tumor vessel perfusion by losartan was investigated. Desmoplasia, high stromal cell and matrix density, is a major contributor to the solid stress accumulation that compresses vessels (Stylianopoulos T, et al., Growth-induced mechanical stress in murine and human tumors: causes, consequences and remedies. under review. 2012). […] Moreover, losartan decreased collagen I concentration, measured based on staining intensity, in E0771 and AK4.4 tumors (FIGS. 24B-24C). […] Next, solid stress in these tumors was measured using recently established technique described in Stylianopoulos T, et al., Growth-induced mechanical stress in murine and human tumors: causes, consequences and remedies. under review. […]\nSolid stress: Solid stress was measured using the tumor opening technique as described previously (Stylianopoulos T, et al., Growth-induced mechanical stress in murine and human tumors: causes, consequences and remedies. under review. 2012). […] Subsequently, each tumor was excised, washed with Hanks' Balanced Salt Solution (HBSS) and its three dimensions were measured. […]"}, "HSTS26T tumors": {"system": "HSTS26T tumors", "experiment": "Collagen I immunostaining of tumor sections", "assay_type": "in vivo, SCID mice", "protocol": "(§1) Human soft tissue sarcoma (HSTS26T) and human melanoma (Mu89) tumors were grown subcutaneously in the legs and dorsal skin fold chamber of severe combined immunodeficient (SCID) mice (Leunig M, et al. (1992) Cancer Res 52:6553-6560). Human pancreatic adenocarcinoma cells (L3.6PL) were grown orthotopically in the pancreas of SCID mice. L3.6PL tumors were induced with a sub-capsular injection of one million cells in the tail of the pancreas. Tumor sizes were monitored in spontaneous FVB/N-Tg (MMTV-PyVT) 634MU1/J mice and tumors selected for treatment when they reached a size of 4 to 6 mm in diameter (Guy C T et al. (1992) Mol Cell Biol 12:954-961).\n(§2) Cozaar (losartan potassium) tablets were ground using a mortar and pestle. The powder was then dissolved in water to obtain a concentration of 2.5 mg/ml. The solution was then filtered and stored in a sterile container.\n(§3) Frozen sections were cut into 10 μm sections for immunohistochemistry and imaging. Collagen I was detected using the LF-67 antibody (1:100 dilution) with a previously described protocol (Znati C A, et al. (2003) Clin Cancer Res 9:5508-5513). TSP-1 was detected with a goat anti-human antibody (1:50 dilution), which cross-reacts with mice (sc-12312, Santa Cruz Biotechnology Inc., Santa Cruz, Calif.). For collagen and TSP-1 analysis, images at 20× magnification were taken randomly from each slide. The collagen and TSP-1 content was determined by measuring the number of pixels above a threshold value that was set based on the average intensity value of pixels from all slides under analysis. The background-signal intensity for both collagen I and thrombospondin-1 immunostaining was low and uniform."}, "Mu89 tumors": {"system": "Mu89 tumors", "experiment": "Collagen I immunostaining of tumor sections", "assay_type": "in vivo, SCID mice", "conditions": "20 mg/kg/day, two weeks (FIG. 5D)", "protocol": "as §1, §2, §3"}, "[2]": {"system": "L3.6 pl orthotopic pancreatic tumors", "experiment": "Distribution and penetration of intravenously injected 100 nm nanoparticles", "assay_type": "in vivo, mice", "conditions": "i.v. injected 100 nm nanoparticles", "protocol": "The inventors then assessed the effect of losartan on blood vessel perfusion and the intratumoral distribution of i.v. injected nanoparticles in mice with orthotopic pancreatic tumors (L3.6 pl).\nA total volume of 10 μl at a concentration of 3.6×10^13 nanoparticles/ml was injected via the tail vein. Twenty-four hrs later 50 μl of FITC-lectin was injected to identify functional vessels. Five min after the lectin-injection tumors were resected, fixed in paraformaldehyde and embedded in OCT. Tumors were then sectioned before confocal imaging and analysis. The extent of nanosphere distribution was determined by measuring the fraction of pixels brighter than the background signal. Nanosphere penetration was determined by drawing contours around perfused vessels and recording the fraction of pixels positive for nanospheres in each contour. Contours extended out to 30 μm for each perfused vessel. Using a previously described algorithm (Tong R T, et al. (2004) Cancer Res 64:3731-3736), the inventors fit the plot of nanosphere fraction and distance away from the vessel to an exponential and obtained a relative penetration depth of nanospheres from each vessel."}, "AK4.4 tumors": {"system": "AK4.4 tumors", "experiment": "Solid stress (tumor opening technique)", "design": "species or system mice", "conditions": "mouse, in vivo"}}, "note": "Several values for one entry are separate records, joined by “and”; a condition that tells them apart may be missing. Equal values may be shown once.", "data": [{"smiles": "CCCCc1nc(Cl)c(CO)n1Cc1ccc(-c2ccccc2-c2nn[nH]n2)cc1", "note": "[losartan]", "values": [{"measurement": "mean tumor weight", "setting": "[1]; agent alone (losartan 20 mg/kg/day or DOXIL 4 mg/kg i.v.), after 7 days", "value": "did not affect"}, {"measurement": "tumor size vs DOXIL alone", "setting": "[1]; losartan 20 mg/kg/day combined with DOXIL 4 mg/kg i.v.", "value": "significantly smaller"}, {"measurement": "growth of pancreatic tumors or weight of treated mice", "setting": "[1]; losartan alone", "value": "did not affect"}, {"measurement": "reduction of tumor sizes compared to DOXIL treatment alone", "setting": "[1]; losartan combined with DOXIL", "value": 50, "unit": "%"}, {"measurement": "solid stress", "setting": "Pan-02 pancreatic tumors", "value": "reduces solid stress"}, {"measurement": "reduction in collagen I immunostaining", "setting": "HSTS26T tumors; 20 mg/kg/day, dose response (FIG. 3), vs saline", "value": 42, "unit": "%"}, {"measurement": "reduction in collagen I immunostaining", "setting": "HSTS26T tumors; 20 mg/kg/day, two weeks (FIG. 5D)", "value": 44, "unit": "%"}, {"measurement": "reduction in collagen I immunostaining", "setting": "HSTS26T tumors; 60 mg/kg/day, dose response (FIG. 3), vs saline", "value": "63% and 65%"}, {"measurement": "reduction in collagen I immunostaining", "setting": "Mu89 tumors", "value": 20, "unit": "%"}, {"measurement": "nanoparticle content in tumors vs control", "setting": "[2]", "value": "two-fold increase"}, {"measurement": "solid stress", "setting": "AK4.4 tumors", "value": "reduces solid stress"}]}]}
